Results reported in patent publication US20040110803A1, “Methods and compositions for the use of D-malic acid to decrease serum triglyceride, cholesterol and lipoprotein levels” (priority 2002, published 2004).
Counter-ions that a name gives are not always drawn. Like-named read-outs stand apart in the source and are kept apart here. One block for each compound: values may come before it.

Legend:
Zucker fa/fa rat [1] = tested on: Zucker fa/fa rat
Description: After eight weeks of treatment, Experiment I was concluded with all ten rats being anesthetized with pentobarbital (40 mg/kg, i.p). […] In addition to body weight, the heart, liver, epididymal fat and left kidney were weighed. The aorta and a portion of the medial lobe of the liver were fixed in buffered 10% formalin and prepared for paraffin embedding and sectioning for pathological analysis.

Zucker fa/fa rat [2] = assay: Experiment II: L-, D,L- and D-malic acid in drinking water, food/water consumption, body weight, serum lipid/liver profile; conditions: for linear slope of body weight versus serum triglycerides, vs control and L-malic acid treated rats: FIG. 3, p≦0.01; for effect on serum lipid levels (hypolipidemic effect): oral, Zucker obese rat, conclusion in words; for water consumption, means between groups: L-malic acid vs control at 10 and 11 weeks of treatment
Description: (§1) In experiment II, forty male Zucker fa/fa rats at five to seven weeks of age began treatment similarly to the rats in Experiment I. At about 5 weeks of age, whole blood was collected from the tail caudal vein of each rat and lipid profiles were measured on the serum.
(§2) Food and water consumption was measured daily for each cage of two rats. Body weight was measured and tail caudal vein blood samples were collected at 6, 8, 10, 12, 14, 16, and 18 and 24 weeks of age. Rats received their oral treatment of malic acid isomers prior to the onset of hyperlipidemia and continued for 16 weeks. The lipid/liver profile was measured on the serum of each rate with the determination of serum triglycerides, total cholesterol, HDL, glucose, AST and ALT with the same procedures of Experiment I.
(§3) Experiment II. This follow-up experiment doubled the number of rats per group (ten/group) and included treatment groups to distinguish the roles of the D isomer and the L isomer of malic acid (Control, L-Malic, D,L-Malic, and D-Malic Acid).

Zucker fa/fa rat [3] = assay: Experiment I: body weight and serum analysis of Zucker fa/fa rats given D,L-malic acid, sodium salt in drinking water; assay type: in vivo; set-up: Serum T Chol / Serum HDL / Serum LDL / Serum VLDL / Serum Glucose: unit not given here; conditions: for Body Wt. / Serum Glucose / Serum HDL / Serum T Chol / Serum Triglyceride / Serum BUN / Serum Creatine / Serum K+ / Serum Na+ / Serum ALT / Serum AST / Serum LDL / Serum VLDL: mean ± SEM; for Body Wt.: in g; for Serum BUN / Serum Creatine: in mg/dL (unit assumed); for Serum K+ / Serum Na+: in mmol/L (unit assumed); for Serum ALT / Serum AST: in U/L (unit assumed); for Serum VLDL: calculated
Excerpt: The Zucker fa/fa rat model was selected to test the effects of malic acid supplements to the diet. The Zucker fa/fa rat is a genetically obese rat associated to elevated leptin levels in the blood. Among humans and most animal models, leptin is known to […], leading to elevated caloric intake and obesity. Associated with the leptin production is an elevation in serum insulin (Giridharan 1998). Thus, obesity can arise from the increase food intake and/or the lipogenic effects of insulin on adipose tissue and liver.
Two separate experiments were conducted on the Zucker fa/fa rat. The first experiment served as a pilot study for the second. In Experiment I, ten male, 7-week-old Zucker fa/fa rats were divided into two parametric groups based upon the results of a clinical serum analysis for lipids, glucose, hepatic enzymes, and ions. […] The control group of five rats received only tap water. After 2, 4, 7, and 10 and 12 weeks of treatment, 1-2 mL whole blood was collect from each rat via the tail caudal vein and the serum retained for analysis. All serum analysis was conducted in the out-patient clinical laboratory of the University Hospital of the University of Alabama at Birmingham with a Synchron LX System. The following methods for each parameter are used in their automated clinical systems.

[4] = tested on: liver of Zucker fa/fa rat; assay: Experiment I: hepatic nucleotide analysis by HPLC of frozen-acid extracted liver; assay type: in vivo; conditions: 12 weeks treatment
Description: After eight weeks of treatment, Experiment I was concluded with all ten rats being anesthetized with pentobarbital (40 mg/kg, i.p). Immediately prior to the rat's euthanasia, a portion of the medial lobe of the liver was weighed, immediately frozen, pulverized and extracted in 12% perchloric acid in dry ice for nucleotide analysis. The acid extracted tissue was thawed, neutralized in saturated potassium bicarbonate and centrifuged at 10,000×g for 15 minutes. The final supernatant was analyzed for nucleotides by HPLC according to the method of Jenkins, et al (1988).

Zucker fa/fa rat [5] = conditions: in vivo
Description: as §1, §2, §3

Zucker fa/fa rat [6] = assay: Experiment I: body weight and serum analysis of Zucker fa/fa rats given D,L-malic acid, sodium salt in drinking water; assay type: in vivo
liver mitochondria = conditions: for concentrations at which not metabolized by mitochondria: oxygen consumption, FIG. 5
Description: To determine the effect of D-malic acid on hepatic mitochondria, mitochondria from the Sprague Dawley rat used for isoenzyme studies were prepared according to the method of Johnson and Lardy (1967). The […] pellet was resuspended in cold sucrose buffer and recentrifuged at 600×g. This supernatant was mixed with the original 600×g supernatant. The 10,000×g mitochondria pellet was suspended in 5 mL of sucrose buffer. […] Consumption of oxygen was represented as percent of oxygen saturation.

[7] = after 18 and 24 weeks of treatment, P≦0.01
[8] = after four and six weeks of treatment, but not beyond, P≦0.05
[9] = −2 weeks Treatment (before dosing)

water consumption, means between groups (Zucker fa/fa rat [5]): did not differ
SMILES: O=C(O)CC(O)C(=O)O (racemic) [D,L-malic acid, D,L-malic acid, sodium salt]
histological examination of the aorta (Zucker fa/fa rat [1]; 12 week (20 weeks of age)): no pathology associated with plaque formation
Percent Fatty Deposition in Hepatocytes, Mean of 200 cells/rat ± SEM (Zucker fa/fa rat [1]; 12 week treated, liver sections 8 um): 45.69 ± 0.62%
Mean Organ Weights: Epididymal Fat (Zucker fa/fa rat [1]; 12 week treated, ± SEM): 0.350 ± .050 gram
percent of fatty inclusions in hepatocytes vs control (Zucker fa/fa rat [1]; 200 hepatocytes, liver sections 8 um): no significant differences
linear slope of body weight versus serum triglycerides, vs control and L-malic acid treated rats (Zucker fa/fa rat [2]): differs significantly
mean serum triglycerides vs controls (Zucker fa/fa rat [2]; [7]): decreased below controls
effect on serum lipid levels (hypolipidemic effect) (Zucker fa/fa rat [2]): significant hypolipidemic effect
Body Wt. (Zucker fa/fa rat [3]; 0 weeks Treatment (start of dosing)): 484 ± 10
Serum Glucose (Zucker fa/fa rat [3]; 2 weeks Treatment): 167 ± 14
Serum HDL (Zucker fa/fa rat [3]; 2 weeks Treatment): 92 ± 4
Serum T Chol (Zucker fa/fa rat [3]; 2 weeks Treatment): 96 ± 5
Serum Triglyceride (Zucker fa/fa rat [3]; 2 weeks Treatment): 358 ± 51 mg %
Body Wt. (Zucker fa/fa rat [3]; 2 weeks Treatment): 553 ± 14
Serum BUN (Zucker fa/fa rat [3]; 2 weeks Treatment): 13 ± 0.5
Serum Creatine (Zucker fa/fa rat [3]; 2 weeks Treatment): .42 ± .02
Serum K+ (Zucker fa/fa rat [3]; 2 weeks Treatment): 5.6 ± 0.3
Serum Na+ (Zucker fa/fa rat [3]; 2 weeks Treatment): 141 ± 0.6
Serum Glucose (Zucker fa/fa rat [3]; 4 weeks Treatment): 156 ± 12
Serum HDL (Zucker fa/fa rat [3]; 4 weeks Treatment): 87 ± 3
Serum T Chol (Zucker fa/fa rat [3]; 4 weeks Treatment): 99 ± 5
Serum Triglyceride (Zucker fa/fa rat [3]; 4 weeks Treatment): 522 ± 82 mg %
Serum ALT (Zucker fa/fa rat [3]; 4 weeks Treatment): 64 ± 4
Serum AST (Zucker fa/fa rat [3]; 4 weeks Treatment): 145 ± 13
Body Wt. (Zucker fa/fa rat [3]; 4 weeks Treatment): 592 ± 15
Serum BUN (Zucker fa/fa rat [3]; 4 weeks Treatment): 12 ± 0.6
Serum Creatine (Zucker fa/fa rat [3]; 4 weeks Treatment): .38 ± .02
Serum K+ (Zucker fa/fa rat [3]; 4 weeks Treatment): 5.8 ± 0.1
Serum Na+ (Zucker fa/fa rat [3]; 4 weeks Treatment): 143 ± 1.1
Serum Glucose (Zucker fa/fa rat [3]; 7 weeks Treatment): 173 ± 10
Serum HDL (Zucker fa/fa rat [3]; 7 weeks Treatment): 110 ± 5
Serum T Chol (Zucker fa/fa rat [3]; 7 weeks Treatment): 120 ± 8
Serum Triglyceride (Zucker fa/fa rat [3]; 7 weeks Treatment): 422 ± 44 mg %
Serum ALT (Zucker fa/fa rat [3]; 7 weeks Treatment): 68 ± 2
Serum AST (Zucker fa/fa rat [3]; 7 weeks Treatment): 126 ± 6
Body Wt. (Zucker fa/fa rat [3]; 7 weeks Treatment): 660 ± 19
Serum BUN (Zucker fa/fa rat [3]; 7 weeks Treatment): 11 ± 0.3
Serum Creatine (Zucker fa/fa rat [3]; 7 weeks Treatment): .34 ± .02
Serum K+ (Zucker fa/fa rat [3]; 7 weeks Treatment): 5.4 ± 0.2
Serum Na+ (Zucker fa/fa rat [3]; 7 weeks Treatment): 144 ± 0.4
Serum Glucose (Zucker fa/fa rat [3]; 10 weeks Treatment): 141 ± 10
Serum HDL (Zucker fa/fa rat [3]; 10 weeks Treatment): 107 ± 10
Serum LDL (Zucker fa/fa rat [3]; 10 weeks Treatment): 1.4 ± 1.4
Serum T Chol (Zucker fa/fa rat [3]; 10 weeks Treatment): 123 ± 14
Serum Triglyceride (Zucker fa/fa rat [3]; 10 weeks Treatment): 430 ± 39 mg %
Serum VLDL (Zucker fa/fa rat [3]; 10 weeks Treatment): 4 ± 4
Serum ALT (Zucker fa/fa rat [3]; 10 weeks Treatment): 69 ± 4
Serum AST (Zucker fa/fa rat [3]; 10 weeks Treatment): 94 ± 2
Body Wt. (Zucker fa/fa rat [3]; 10 weeks Treatment): 708 ± 26
Serum BUN (Zucker fa/fa rat [3]; 10 weeks Treatment): 16 ± 1.2
Serum Creatine (Zucker fa/fa rat [3]; 10 weeks Treatment): .32 ± .02
Serum K+ (Zucker fa/fa rat [3]; 10 weeks Treatment): 6.6 ± 0.2
Serum Na+ (Zucker fa/fa rat [3]; 10 weeks Treatment): 143 ± 0.8
Serum Glucose (Zucker fa/fa rat [3]; 12 weeks Treatment): 153 ± 9
Serum HDL (Zucker fa/fa rat [3]; 12 weeks Treatment): 117 ± 9
Serum LDL (Zucker fa/fa rat [3]; 12 weeks Treatment): 6 ± 0.4
Serum T Chol (Zucker fa/fa rat [3]; 12 weeks Treatment): 137 ± 14
Serum Triglyceride (Zucker fa/fa rat [3]; 12 weeks Treatment): 437 ± 35 mg %
Serum VLDL (Zucker fa/fa rat [3]; 12 weeks Treatment): 14 ± 5
Serum ALT (Zucker fa/fa rat [3]; 12 weeks Treatment): 71 ± 6
Serum AST (Zucker fa/fa rat [3]; 12 weeks Treatment): 115 ± 16
Body Wt. (Zucker fa/fa rat [3]; 12 weeks Treatment): 722 ± 30
Serum Creatine (Zucker fa/fa rat [3]; 12 weeks Treatment): .34 ± .02
Serum K+ (Zucker fa/fa rat [3]; 12 weeks Treatment): 6.4 ± 0.1
Serum Na+ (Zucker fa/fa rat [3]; 12 weeks Treatment): 141 ± 0.6
serum ALT vs control (Zucker fa/fa rat [3]; [8]): significantly lowered
serum glucose, sodium, or potassium, HCO3, chloride, and BUN levels vs control (Zucker fa/fa rat [3]; in words): no detectable affect
serum triglyceride levels vs control (Zucker fa/fa rat [3]; ten and twelve weeks of treatment, P≦0.001): differences were more remarkable
effect on body weight (Zucker fa/fa rat [3]; vs control, in words): no effect
Serum Glucose (Zucker fa/fa rat [3]; [9]): 147 ± 2
Serum HDL (Zucker fa/fa rat [3]; [9]): 90 ± 3
Serum T Chol (Zucker fa/fa rat [3]; [9]): 91 ± 4
Serum Triglyceride (Zucker fa/fa rat [3]; [9]): 387 ± 41 mg %
Body Wt. (Zucker fa/fa rat [3]; [9]): 359 ± 6
Serum BUN (Zucker fa/fa rat [3]; [9]): 21 ± 0.9
Serum Creatine (Zucker fa/fa rat [3]; [9]): 0.46 ± 0.02
Serum K+ (Zucker fa/fa rat [3]; [9]): 6.1 ± 0.2
Serum Na+ (Zucker fa/fa rat [3]; [9]): 147 ± 0.2
hepatic tissue NAD levels vs control [4]: elevated but not significantly
hepatic tissue levels of NADP vs control [4]: significantly elevated
mean hepatic purine nucleotides vs control [4]: No significant differences
Mean Hepatic Purine Dinucleotide Levels: NAD ([4]; ± SEM): 350 ± 23 nmoles/gm tissue wet wt.
Mean Hepatic Purine Nucleotides Level: ADP ([4]; ± SEM): 125 ± 7 nmoles/gm tissue wet wt.
Mean Hepatic Purine Nucleotides Level: AMP ([4]; ± SEM): 168 ± 18 nmoles/gm tissue wet wt.
Mean Hepatic Purine Nucleotides Level: ATP ([4]; ± SEM): 556 ± 35 nmoles/gm tissue wet wt.
Mean Hepatic Purine Nucleotides Level: Adenosine ([4]; ± SEM): 65 nmoles/gm tissue wet wt.
Mean Hepatic Purine Dinucleotide Levels: NADP ([4]; ± SEM, significantly different P ≦ 0.05): 61.7 ± 3.8 nmoles/gm tissue wet wt.
serum HDL cholesterol vs control (Zucker fa/fa rat [6]; after eight weeks of treatment, P≦0.05): significant decrease
serum AST vs control (Zucker fa/fa rat [6]; [8]): significantly lowered
serum total cholesterol vs control (Zucker fa/fa rat [6]; after six weeks of treatment, P≦0.05): significant decrease
serum triglyceride levels vs control (Zucker fa/fa rat [6]; two to eight weeks of treatment, P≦0.01): significantly decreased

SMILES: O=C(O)C[C@@H](O)C(=O)O [D-malic acid, D-malic acid, sodium salt]
linear slope of body weight versus serum triglycerides, vs control and L-malic acid treated rats (Zucker fa/fa rat [2]): differs significantly
water consumption, means between groups (Zucker fa/fa rat [2]): did not differ
mean serum triglycerides compared to controls (Zucker fa/fa rat [2]; after 12 weeks and beyond of treatment, P≦0.05): lowered
mean serum triglycerides vs controls (Zucker fa/fa rat [2]; [7]): decreased below controls
effect on serum lipid levels (hypolipidemic effect) (Zucker fa/fa rat [2]): effective
effect on the metabolism of L-malic acid by mitochondria (liver mitochondria; 20 umoles/5 mL D-malic acid): inhibited
transport of L-malic acid into the mitochondria (liver mitochondria; mitochondrial incubations): partially blocks
concentrations at which not metabolized by mitochondria (liver mitochondria): less than 40 umoles/5 mL
concentrations at which not metabolized by mitochondria (liver mitochondria; converted): < 6.7 mM

SMILES: O=C(O)C[C@H](O)C(=O)O [L-malic acid, L-malic acid, sodium salt, reference compound]
food consumption (rat chow consumed/rat/day) vs control (Zucker fa/fa rat [2]; 6 to 20 weeks of age): tended to eat more rat chow
mean serum levels of triglycerides vs control (Zucker fa/fa rat [2]; 8 to 24 weeks of age): no significant difference
mean serum total cholesterol vs control (Zucker fa/fa rat [2]; 8 to 24 weeks of age): no significant difference
water consumption, means between groups (Zucker fa/fa rat [2]; sodium salt): Significant differences
mean serum triglycerides vs controls (Zucker fa/fa rat [2]; after 24 weeks of age (18 weeks of treatment)): greater mean serum triglycerides than controls but not statistically significant
mean serum glucose vs control (Zucker fa/fa rat [2]; only weeks 8 and 16, P≦0.05): sporadically (only weeks 8 and 16) elevated
effect on serum lipid levels (hypolipidemic effect) (Zucker fa/fa rat [2]; listed as L-isomer of malic acid, sodium salt): no effect
